Experimental data from ChEMBL document CHEMBL1201862, “PubChem BioAssay data set” (2004).
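Following 48 hours of exposure in 96-well plates, responses at five concentrations were used to interpolate endpoints linearly. The concentration for 50% growth inhibition is given as GI50.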 The source made the active and inactive calls. Rule as the data show it: active = GI50 up to about 1.1 µM and inactive = higher.

Columns and labels:
Experiment in all cases: NCI-60 cell line screen, 48 h
RXF 393 = tested on: RXF 393
OVCAR-5 = tested on: OVCAR-5
UACC-257 = tested on: UACC-257
ACHN = tested on: ACHN
RXF 631 = tested on: RXF 631
SNB-19 = tested on: SNB-19
SNB-78 = tested on: SNB-78
TK-10 = tested on: TK-10
HT-29 = tested on: HT-29
A549 = tested on: A549
HOP-62 = tested on: HOP-62
KM-20L2 = tested on: KM-20L2
A498 = tested on: A498
OVCAR-8 = tested on: OVCAR-8
HCT-116 = tested on: HCT-116
CCRF-CEM = tested on: CCRF-CEM
M14 = tested on: M14
UACC-62 = tested on: UACC-62
NCI-H460 = tested on: NCI-H460
MOLT-4 = tested on: MOLT-4
M19-MEL = tested on: M19-MEL
SR = tested on: SR
KM12 = tested on: KM12
IGROV-1 = tested on: IGROV-1
DMS-273 = tested on: DMS-273
EKVX = tested on: EKVX
HOP-92 = tested on: HOP-92
NCI-H23 = tested on: NCI-H23
SK-OV-3 = tested on: SK-OV-3
U-251 = tested on: U-251
DMS-114 = tested on: DMS-114
NCI-H522 = tested on: NCI-H522
SK-MEL-28 = tested on: SK-MEL-28
UO-31 = tested on: UO-31
HL-60 = tested on: HL-60
SF-295 = tested on: SF-295
RPMI-8226 = tested on: RPMI-8226
DLD-1 = tested on: DLD-1
SK-MEL-2 = tested on: SK-MEL-2
NCI-H226 = tested on: NCI-H226
786-0 = tested on: 786-0
HCT-15 = tested on: HCT-15
CAKI-1 = tested on: CAKI-1
COLO 205 = tested on: COLO 205
SF-539 = tested on: SF-539
SF-268 = tested on: SF-268
SN12C = tested on: SN12C
SK-MEL-5 = tested on: SK-MEL-5
OVCAR-3 = tested on: OVCAR-3
SW-620 = tested on: SW-620
LOX IMVI = tested on: LOX IMVI
Malme-3M = tested on: Malme-3M
OVCAR-4 = tested on: OVCAR-4
LXFL 529 = tested on: LXFL 529
K562 = tested on: K562
SNB-75 = tested on: SNB-75
HOP-18 = tested on: HOP-18
HCC 2998 = tested on: HCC 2998
XF498 = tested on: XF498

COc1ccccc1-c1csc(CCC(N)C(=O)O)n1 (stereo not given) was tested, and the GI50 (RXF 393) was > 100 µM (inactive), the GI50 (OVCAR-5) was > 100 µM (inactive) and the GI50 (UACC-257) was > 100 µM (inactive). The GI50 (ACHN) was > 100 µM (inactive), the GI50 (RXF 631) was > 100 µM (inactive) and the GI50 (SNB-19) was > 100 µM (inactive). For the same compound, the GI50 (SNB-78) was > 100 µM (inactive), the GI50 (TK-10) was 26.3 µM (inactive) and the GI50 (HT-29) was > 100 µM (inactive). The GI50 (A549) was > 100 µM (inactive), the GI50 (HOP-62) was > 100 µM (inactive) and the GI50 (KM-20L2) was > 100 µM (inactive). The GI50 (A498) was > 100 µM (inactive), the GI50 (OVCAR-8) was > 100 µM (inactive) and the GI50 (HCT-116) was > 100 µM (inactive). For the same compound, the GI50 (CCRF-CEM) was > 100 µM (inactive), the GI50 (M14) was > 100 µM (inactive) and the GI50 (UACC-62) was > 100 µM (inactive). For the same compound, the GI50 (NCI-H460) was > 100 µM (inactive), the GI50 (MOLT-4) was > 100 µM (inactive) and the GI50 (M19-MEL) was > 100 µM (inactive). The GI50 (SR) was > 100 µM (inactive), the GI50 (KM12) was > 100 µM (inactive) and the GI50 (IGROV-1) was > 100 µM (inactive). For the same compound, the GI50 (DMS-273) was > 100 µM (inactive), the GI50 (EKVX) was > 100 µM (inactive) and the GI50 (HOP-92) was > 100 µM (inactive). For the same compound, the GI50 (NCI-H23) was > 100 µM (inactive), the GI50 (SK-OV-3) was > 100 µM (inactive) and the GI50 (U-251) was > 100 µM (inactive). The GI50 (DMS-114) was > 100 µM (inactive), the GI50 (NCI-H522) was > 100 µM (inactive) and the GI50 (SK-MEL-28) was > 100 µM (inactive). The GI50 (UO-31) was > 100 µM (inactive), the GI50 (HL-60) was > 100 µM (inactive) and the GI50 (SF-295) was > 100 µM (inactive).

With O=C1/C=C(/c2ccc(O)cc2)[C@@H](OC2OC(CO)C(O)C(O)C2O)Cc2ccc(O)cc2O1.O=C1/C=C(/c2ccc(O)cc2)[C@H](O)Cc2ccc(O[C@@H]3OC(CO)C(O)C(O)C3O)cc2O1 (stereo not given in full) the GI50 (OVCAR-5) was > 100 µM (inactive), the GI50 (RPMI-8226) was 25.2 µM (inactive) and the GI50 (UACC-257) was > 100 µM (inactive). The GI50 (ACHN) was > 100 µM (inactive), the GI50 (RXF 631) was > 100 µM (inactive) and the GI50 (DLD-1) was > 100 µM (inactive). For the same compound, the GI50 (SNB-19) was > 100 µM (inactive), the GI50 (SNB-78) was > 100 µM (inactive) and the GI50 (TK-10) was > 100 µM (inactive). The GI50 (HT-29) was > 100 µM (inactive), the GI50 (A549) was > 100 µM (inactive) and the GI50 (SK-MEL-2) was > 100 µM (inactive). For the same compound, the GI50 (HOP-62) was > 100 µM (inactive), the GI50 (KM-20L2) was > 100 µM (inactive) and the GI50 (A498) was > 100 µM (inactive). For the same compound, the GI50 (OVCAR-8) was > 100 µM (inactive), the GI50 (HCT-116) was > 100 µM (inactive) and the GI50 (NCI-H226) was > 100 µM (inactive). For the same compound, the GI50 (786-0) was > 100 µM (inactive), the GI50 (HCT-15) was over 100 µM and the GI50 (CAKI-1) was > 100 µM (inactive). For the same compound, the GI50 (M14) was > 100 µM (inactive), the GI50 (UACC-62) was > 100 µM (inactive) and the GI50 (NCI-H460) was > 100 µM (inactive). The GI50 (COLO 205) was > 100 µM (inactive), the GI50 (SF-539) was > 100 µM (inactive) and the GI50 (SF-268) was > 100 µM (inactive). The GI50 (SN12C) was > 100 µM (inactive), the GI50 (M19-MEL) was > 100 µM (inactive) and the GI50 (SK-MEL-5) was > 100 µM (inactive). For the same compound, the GI50 (SR) was 1 µM (active), the GI50 (KM12) was > 100 µM (inactive) and the GI50 (IGROV-1) was > 100 µM (inactive). The GI50 (OVCAR-3) was > 100 µM (inactive), the GI50 (EKVX) was > 100 µM (inactive) and the GI50 (SW-620) was > 100 µM (inactive). For the same compound, the GI50 (NCI-H23) was > 100 µM (inactive), the GI50 (SK-OV-3) was > 100 µM (inactive) and the GI50 (U-251) was > 100 µM (inactive). For the same compound, the GI50 (LOX IMVI) was > 100 µM (inactive), the GI50 (DMS-114) was > 100 µM (inactive) and the GI50 (Malme-3M) was > 100 µM (inactive). The GI50 (NCI-H522) was > 100 µM (inactive), the GI50 (OVCAR-4) was > 100 µM (inactive) and the GI50 (UO-31) was > 100 µM (inactive). For the same compound, the GI50 (HL-60) was 4.91 µM (inactive), the GI50 (SF-295) was > 100 µM (inactive) and the GI50 (LXFL 529) was > 100 µM (inactive).

With COC(=O)C1=C(c2ccc3c(c2)OCO3)O[C@H](c2ccc3c(c2)OCO3)[C@H]1COC(C)=O the GI50 (RXF 393) was 40 µM (inactive), the GI50 (OVCAR-5) was 39.6 µM (inactive) and the GI50 (RPMI-8226) was 60.4 µM (inactive). For the same compound, the GI50 (UACC-257) was 55.2 µM (inactive), the GI50 (ACHN) was 29.4 µM (inactive) and the GI50 (DLD-1) was 35.7 µM (inactive). For the same compound, the GI50 (SNB-78) was 66.1 µM (inactive), the GI50 (TK-10) was 46.7 µM (inactive) and the GI50 (HT-29) was 36.2 µM (inactive). The GI50 (A549) was 46.7 µM (inactive), the GI50 (SK-MEL-2) was 63 µM (inactive) and the GI50 (HOP-62) was 58.5 µM (inactive). For the same compound, the GI50 (KM-20L2) was 71.1 µM (inactive), the GI50 (K562) was 35.4 µM (inactive) and the GI50 (SNB-75) was 49.5 µM (inactive). The GI50 (A498) was 24.6 µM (inactive), the GI50 (OVCAR-8) was 45.8 µM (inactive) and the GI50 (HCT-116) was 51.5 µM (inactive). For the same compound, the GI50 (NCI-H226) was 39 µM (inactive), the GI50 (CCRF-CEM) was 78.9 µM (inactive) and the GI50 (786-0) was 36.2 µM (inactive). The GI50 (HCT-15) was 53.1 µM, the GI50 (CAKI-1) was 27.5 µM (inactive) and the GI50 (M14) was 32.6 µM (inactive). The GI50 (UACC-62) was 38.6 µM (inactive), the GI50 (NCI-H460) was 63.5 µM (inactive) and the GI50 (COLO 205) was 15.3 µM (inactive). For the same compound, the GI50 (SF-539) was 61.2 µM (inactive), the GI50 (HOP-18) was 36.6 µM (inactive) and the GI50 (HCC 2998) was 35.7 µM (inactive). The GI50 (MOLT-4) was 35.2 µM (inactive), the GI50 (SF-268) was 87.5 µM (inactive) and the GI50 (SN12C) was 45.2 µM (inactive). For the same compound, the GI50 (M19-MEL) was 33.3 µM (inactive), the GI50 (SK-MEL-5) was 24.5 µM (inactive) and the GI50 (SR) was 32.1 µM (inactive). For the same compound, the GI50 (XF498) was 41.8 µM (inactive), the GI50 (KM12) was 62.4 µM (inactive) and the GI50 (IGROV-1) was 63.5 µM (inactive). For the same compound, the GI50 (OVCAR-3) was 55.6 µM (inactive), the GI50 (DMS-273) was 56.2 µM (inactive) and the GI50 (EKVX) was 59 µM (inactive). The GI50 (SW-620) was > 100 µM (inactive), the GI50 (HOP-92) was 30.5 µM (inactive) and the GI50 (NCI-H23) was 37.3 µM (inactive). For the same compound, the GI50 (SK-OV-3) was 41 µM (inactive), the GI50 (U-251) was 53 µM (inactive) and the GI50 (LOX IMVI) was 48.4 µM (inactive). The GI50 (DMS-114) was 57.9 µM (inactive), the GI50 (Malme-3M) was 53.2 µM (inactive) and the GI50 (SK-MEL-28) was 65 µM (inactive). The GI50 (OVCAR-4) was 36.6 µM (inactive), the GI50 (UO-31) was 38.7 µM (inactive) and the GI50 (HL-60) was 21.8 µM (inactive). For the same compound, the GI50 (SF-295) was 34.4 µM (inactive) and the GI50 (LXFL 529) was 32.3 µM (inactive).
